What was measured:
Format in all cases: cell-based, mouse
[1] = test system: Oct4-EGFP MEFs; test: OSKM-induced reprogramming of Oct4-EGFP MEFs to iPS cells, GFP+ colony count
From the text: (§1) Oct4-EGFP MEFs were derived from the mouse strain B6; 129S4-Pou5f1^tm2(EGFP)Jae/J (The Jackson Laboratory, Bar Harbor, Me., USA, on the world wide web at jax.org/; stock #008214) following the protocol on the WiCell Research Institute, Madison, Wis., USA, on the world wide web at wicell.org/website. In brief, embryonic day 13.5 (E13.5) embryos were collected from timemated pregnant female mice and then tested for microbial contamination. Oct4-EGFP MEFs were maintained in MEF complete medium (Dulbecco's modified Eagle's medium [For DMEM or culture medium & materials: Gibco Cell Culture, Carlsbad, Calif., USA, on the world wide web at invitrogen.com/gibco] with 10% fetal bovine serum (FBS), nonessential amino acids, L-glutamine, and no sodium pyruvate). Cells passaged fewer than five times were used for induced reprogramming.
Reprogramming was conducted as described in Takahashi et al. (Cell 126: 663-676 (2006)). In brief, 4×10^4 Oct4-EGFP MEF were transduced with pMX retroviruses for ectopic expression of Oct4, Sox2, Klf4, and c-Myc (Addgene). Three days later, cells were fed ES medium (DMEM with 15% ES-screened FBS, nonessential amino acids, L-glutamine, monothioglycerol, and 1000 U/ml leukemia inhibitory factor (LIF)) and the media was changed every other day. Reprogrammed (EGFP+) cells were identified and scored by fluorescence microscopy two to three weeks post transduction, unless otherwise stated. To derive iPSCs, EGFP+ colonies were manually picked under a stereomicroscope (Leica Microsystems). In the case of small molecule treatment, indicated small molecules were applied to reprogramming cells on day four post-transduction and fresh medium was added every other day for at least two weeks or until EGFP+ colonies appeared.
For reprogramming, retrovirus expressing reprogramming factors (Oct4, Sox2, Klf4, and c-Myc) were added and the medium was then changed to complete medium next day. For overexpression of COX2 transgene, retroviruses expressing COX2 were added 1 day after OSKM transduction. siRNAs were introduced at day 5 post-transduction.

[2] = test system: Oct4-EGFP MEFs; test: OSK (without c-Myc) reprogramming of Oct4-EGFP MEFs, GFP+ colony count
From the text: as §1
Reprogramming was conducted as described in Takahashi et al. (Cell 126: 663-676 (2006)). In brief, 4×10^4 Oct4-EGFP MEF were transduced with pMX retroviruses for ectopic expression of Oct4, Sox2, Klf4, and c-Myc (Addgene). […] Reprogrammed (EGFP+) cells were identified and scored by fluorescence microscopy two to three weeks post transduction, unless otherwise stated. […]

[3] = test system: Oct4-EGFP MEFs; test: Alkaline phosphatase (AP)+ colony formation during reprogramming; settings: molecules applied during reprogramming; data not shown
Protocol: iPS cells were seeded and cultured on 0.1% gelatin-coated 6-well plates. Four days later, cells were fixed with 4% paraformadehyde (Electron Microscopy Sciences; Cat#15710-S). For immunofluorescence, fixed cells were permeabilized with 0.1% Triton X-100 in PBS and blocked with 5% BSA in PBS. SSEA-1 (R&D; Cat#MAB2155), Sox2 (R&D; Cat#MAB2018), and Nanog (R&D; Cat#AF2729) antibodies were used to detect ES markers. Nuclei were visualized by Hoechst 33342 (Invitrogen) staining. For AP staining, fixed cells were treated with alkaline phosphatase substrate following the manufacturer's instruction (Vector Laboratories; Cat#SK-5100).
All 17 molecules were tested by examining alkaline phosphatase (AP)+ colony formation during reprogramming while these molecules were applied. […] To that end, 6 molecules were picked including nabumetone, 4-hydroxytamoxifen (OHTM), corynanthine, moclobemide, NiSO4, and lectin—for further analysis (FIG. 2A). To evaluate their effect on induction of mature GFP+ iPS cells, OSKM-transduced Oct4-EGFP MEFs were treated four days after transduction with each of these factors separately.

[4] = test system: Oct4-EGFP MEFs; test: OKM (without Sox2) reprogramming of Oct4-EGFP MEFs, GFP+ colony count
Protocol: Oct4-EGFP MEFs were derived from the mouse strain B6; 129S4-Pou5f1^tm2(EGFP)Jae/J (The Jackson Laboratory, Bar Harbor, Me., USA, on the world wide web at jax.org/; stock #008214) following the protocol on the WiCell Research Institute, Madison, Wis., USA, on the world wide web at wicell.org/website. In brief, embryonic day 13.5 (E13.5) embryos were collected from timemated pregnant female mice and then tested for microbial contamination. […]
Reprogramming was conducted as described in Takahashi et al. (Cell 126: 663-676 (2006)). […] Reprogrammed (EGFP+) cells were identified and scored by fluorescence microscopy two to three weeks post transduction, unless otherwise stated. […]
Oct4-EGFP MEFs were transduced with OKM and treated with pool of 6 molecules, including NiSO4, nabumetone, OHTM, moclobemide, lectin, and corynanthine, at day 4 for at least 10 days. GFP+ colonies were identified and counted as described in FIG. 1 at day 14. […]
Oct4-EGFP MEFs were transduced with OKM and four days later treated with 1.25 uM OHTM at least 10 days. GFP+ colonies were counted as described in FIG. 1 at day 15˜21. […]
Oct4-EGFP MEFs were transduced with OKM and four days later treated with 2.18 uM nabumetone (Nabu) for at least 10 days. GFP+ colonies were counted as described in FIG. 1 at day 17˜21. […]

[5] = test system: Sox2; test: Endogenous Sox2 mRNA expression by real time qRT-PCR in OKM-transduced Oct4-EGFP MEFs; settings: OKM-transduced cells, compared with OKM+DMSO (FIG. 3E)
From the text: To understand the molecular mechanism underlying OHTM's effect on reprogramming, the question of whether OHTM induces endogenous Sox2 expression was posed. To do so, OHTM or control DMSO was applied to Oct4-EGFP MEF four days after transduction with OKM. Cells were harvested at indicated time points for total RNA isolation and real time qRT-PCR analysis (FIG. 3E). […] However, the direct targets of OHTM to affect Sox2 expression were not clear.
Oct4-EGFP MEFs were transduced with OKM and treated with OHTM four days later. Cells were harvested at indicated days (D) for real time RT-PCR analysis. β actin expression serves as an internal control. Error bars represent standard deviation of 2˜3 independent experiments. * p value <0.05.

With `COc1ccc2c(c1)c(CC(=O)O)c(C)n2C(=O)c1ccc(Cl)cc1` [indomethacin] the “effect on iPSC generation (EGFP+ colony number)” value ([1]; applied day 4~5 post transduction, scored two weeks post transduction (FIG. 6A)) was “no effect” and the “effect on iPSC generation (EGFP+ colony number)” value ([2]; OSK, applied day 4~5 post transduction, scored two weeks post transduction (FIG. 6B)) was “no effect”.
In the case of `O=C(NCCN1CCOCC1)c1ccc(Cl)cc1` [Moclobemide], the “effect on AP+ colony formation” value [3] was “not showing adverse effect”.
`COC(=O)[C@H]1[C@H]2C[C@H]3c4[nH]c5ccccc5c4CCN3C[C@@H]2CC[C@@H]1O.Cl` [Corynanthine hydrochloride] was tested, and the “effect on AP+ colony formation” value [3] was “not showing adverse effect”.
`COc1ccc2cc(CCC(C)=O)ccc2c1` [Nabumetone] was tested, and the “effect on AP+ colony formation” value [3] was “not showing adverse effect”, the “enhancement of reprogramming efficiency” value ([1]; in the presence of control siRNA (siNT), compared with DMSO treatment, day 12~14 (FIG. 2C)) was “more than 6 fold” and the “increase in number of reprogrammed (GFP+) colonies” value ([1]; treated four days after transduction, compared with DMSO controls (FIG. 2B)) was “at least 2.8 fold”. The “effect on OKM-induced reprogramming” value ([4]; 2.18 uM, day 17~21 (FIG. 3D)) was “significantly improved” and the “enhancement of reprogramming by OSK” value ([2]; OSK without c-Myc, treated four days after transduction, day 21, compared with OSK+DMSO (FIG. 3A)) was roughly 2.5 fold.
In the case of “4-hydroxytamoxifen [4-hydroxytamoxifen (OHTM)]”, the “effect on AP+ colony formation” value [3] was “not showing adverse effect”, the “induction of endogenous Sox2 mRNA” value ([5]; day 12) was 220% and the “induction of endogenous Sox2 mRNA” value ([5]; day 16) was 400%. The “effect on OKM-induced reprogramming” value ([4]; 1.25 uM, day 15~21, vs OKM+DMSO (FIG. 3C)) was “significantly improved”.
